Series [1] deals with MAP kinase-activated protein kinase 5 (Homo sapiens) (UniProt Q8IW41). Description: Inhibition of PRAK (unknown origin) at 100 nM.
Series [2] concerns Platelet-derived growth factor receptor alpha (Homo sapiens), P16234 [V561D]. Description: Inhibition of PDGFRalpha V561D mutant (unknown origin) at 100 nM.
In series [3] the target is Serine/threonine-protein kinase DCLK2 (Homo sapiens) (UniProt Q8N568). Description: Inhibition of DCAMKL2 (unknown origin) at 100 nM.
Series [4] addresses Mitogen-activated protein kinase 13 (Homo sapiens) (UniProt O15264). The series can be described thus: Inhibition of p38delta(unknown origin) at 100 nM.
For series [5], the target named is Serine/threonine-protein kinase WNK2 (Homo sapiens) (UniProt Q9Y3S1). Description: Inhibition of WNK2 (unknown origin) at 100 nM.
For series [6], the target named is SRSF protein kinase 3 (Homo sapiens) (UniProt Q9UPE1). Description: Inhibition of MSSK1 (unknown origin) at 100 nM.
Series [7] concerns the target Insulin receptor-related protein (Homo sapiens) (UniProt P14616). The series can be described thus: Inhibition of IRR (unknown origin) at 100 nM.
The target of series [8] is Protein kinase C zeta type (Homo sapiens) (UniProt Q05513). The series can be described thus: Inhibition of PKCzeta (unknown origin) at 100 nM.
For series [9], the target named is Serine/threonine-protein kinase Sgk2 (Homo sapiens) (UniProt Q9HBY8). The series can be described thus: Inhibition of SGK2 (unknown origin) at 100 nM.
The target in series [10] is Fibroblast growth factor receptor 3 (Homo sapiens) (UniProt P22607). Description: Inhibition of FGFR3 (unknown origin) at 100 nM.
Chain of Fibroblast growth factor receptor 3 (Homo sapiens) (P22607 23-806 limits assumed): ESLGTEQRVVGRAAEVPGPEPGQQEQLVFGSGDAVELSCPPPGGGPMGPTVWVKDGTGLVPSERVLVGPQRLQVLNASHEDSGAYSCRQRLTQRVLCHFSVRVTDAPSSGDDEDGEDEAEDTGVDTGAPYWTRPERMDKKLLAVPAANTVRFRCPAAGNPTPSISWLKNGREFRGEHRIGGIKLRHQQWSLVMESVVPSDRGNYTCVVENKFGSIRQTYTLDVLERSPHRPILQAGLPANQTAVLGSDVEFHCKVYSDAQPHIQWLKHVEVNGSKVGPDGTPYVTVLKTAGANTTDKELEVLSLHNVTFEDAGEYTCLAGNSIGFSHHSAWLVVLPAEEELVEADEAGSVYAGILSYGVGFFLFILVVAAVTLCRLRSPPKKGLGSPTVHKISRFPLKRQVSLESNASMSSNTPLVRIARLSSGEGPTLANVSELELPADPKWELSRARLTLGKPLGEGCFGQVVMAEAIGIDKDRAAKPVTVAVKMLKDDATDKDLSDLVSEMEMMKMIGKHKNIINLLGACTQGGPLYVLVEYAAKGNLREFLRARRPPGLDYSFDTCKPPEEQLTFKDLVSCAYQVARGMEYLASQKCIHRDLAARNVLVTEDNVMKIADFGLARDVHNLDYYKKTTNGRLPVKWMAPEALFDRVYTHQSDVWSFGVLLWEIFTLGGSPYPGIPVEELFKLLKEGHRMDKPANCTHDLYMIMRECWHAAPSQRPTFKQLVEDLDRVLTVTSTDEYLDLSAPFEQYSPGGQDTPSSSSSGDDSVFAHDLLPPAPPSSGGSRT
In series [11] the target is Tyrosine-protein kinase Mer (Homo sapiens) (UniProt Q12866). Description: Inhibition of MER (unknown origin) at 100 nM.
Series [12] concerns the target Vascular endothelial growth factor receptor 3 (Homo sapiens) (UniProt P35916). The series can be described thus: Inhibition of FLT4 (unknown origin) at 100 nM.
The target in series [13] is Activin receptor type-1 (Homo sapiens) (UniProt Q04771). The series can be described thus: Inhibition of ALK2 (unknown origin) at 100 nM.
The target in series [14] is cGMP-dependent protein kinase 1 (Homo sapiens) (UniProt Q13976). Description: Inhibition of PKG1alpha (unknown origin) at 100 nM.
Series [15] deals with Cyclin-dependent kinase 1/cyclin B1 (Homo sapiens) (UniProt P06493+P14635). The series can be described thus: Inhibition of CDK1/cyclinB (unknown origin) at 100 nM. Type of series: protein-complex assay.
Series [16] deals with Angiopoietin-1 receptor (Homo sapiens) (UniProt Q02763). The series can be described thus: Inhibition of TIE2 (unknown origin) at 100 nM.
Series [17] has as its target Mitogen-activated protein kinase kinase kinase 5 (Homo sapiens) (UniProt Q99683). Description: Inhibition of ASK1 (unknown origin) at 100 nM.
Series [18] deals with PAS domain-containing serine/threonine-protein kinase (Homo sapiens) (UniProt Q96RG2). The series can be described thus: Inhibition of PASK (unknown origin) at 100 nM.
In series [19] the target is Vascular endothelial growth factor receptor 1 (Homo sapiens) (UniProt P17948). The series can be described thus: Inhibition of FLT1 (unknown origin) at 100 nM.
Series [20] concerns the target Tyrosine-protein kinase TXK (Homo sapiens) (UniProt P42681). The series can be described thus: Inhibition of TXK (unknown origin) at 100 nM.
For series [21], the target named is Serine/threonine-protein kinase PLK1 (Homo sapiens) (UniProt P53350). Description: Inhibition of PLK1 (unknown origin) at 100 nM.
The target of series [22] is Calcium/calmodulin-dependent protein kinase type II subunit alpha (Homo sapiens) (UniProt Q9UQM7). The series can be described thus: Inhibition of CamKIIalpha (unknown origin) at 100 nM.
The target in series [23] is Serine/threonine-protein kinase pim-1 (Homo sapiens) (UniProt P11309). The series can be described thus: Inhibition of PIM1 (unknown origin) at 100 nM.
In series [24] the target is Casein kinase I isoform gamma-1 (Homo sapiens) (UniProt Q9HCP0). Description: Inhibition of CK1gamma1 (unknown origin) at 100 nM.
For series [25], the target named is Ephrin type-A receptor 7 (Homo sapiens) (UniProt Q15375). Description: Inhibition of EPHA7 (unknown origin) at 100 nM.
For series [26], the target named is Serine/threonine-protein kinase N1 (Homo sapiens) (UniProt Q16512). The series can be described thus: Inhibition of PRK1 (unknown origin) at 100 nM.
Series [27] concerns the target MAP kinase-interacting serine/threonine-protein kinase 1 (Homo sapiens) (UniProt Q9BUB5). Description: Inhibition of MKNK1 (unknown origin) at 100 nM.
Series [28] concerns the target Casein kinase I isoform gamma-3 (Homo sapiens) (UniProt Q9Y6M4). The series can be described thus: Inhibition of CK1gamma3 (unknown origin) at 100 nM.
Series [29] deals with NUAK family SNF1-like kinase 1 (Homo sapiens) (UniProt O60285). Description: Inhibition of ARK5 (unknown origin) at 100 nM.
Series [30] concerns the target STE20-like serine/threonine-protein kinase (Homo sapiens) (UniProt Q9H2G2). Description: Inhibition of SLK (unknown origin) at 100 nM.
In series [31] the target is Serine/threonine-protein kinase PAK 3 (Homo sapiens) (UniProt O75914). The series can be described thus: Inhibition of PAK3 (unknown origin) at 100 nM.
The target of series [32] is Serine/threonine-protein kinase Sgk1 (Homo sapiens) (UniProt O00141). The series can be described thus: Inhibition of SGK1 (unknown origin) at 100 nM.
Series [33] addresses Homeodomain-interacting protein kinase 4 (Homo sapiens) (UniProt Q8NE63). The series can be described thus: Inhibition of HIPK4 (unknown origin) at 100 nM.
In series [34] the target is Mitogen-activated protein kinase kinase kinase kinase 5 (Homo sapiens) (UniProt Q9Y4K4). The series can be described thus: Inhibition of KHS1 (unknown origin) at 100 nM.
Chain of Mitogen-activated protein kinase kinase kinase kinase 5 (Homo sapiens) (Q9Y4K4 whole entry, looked up): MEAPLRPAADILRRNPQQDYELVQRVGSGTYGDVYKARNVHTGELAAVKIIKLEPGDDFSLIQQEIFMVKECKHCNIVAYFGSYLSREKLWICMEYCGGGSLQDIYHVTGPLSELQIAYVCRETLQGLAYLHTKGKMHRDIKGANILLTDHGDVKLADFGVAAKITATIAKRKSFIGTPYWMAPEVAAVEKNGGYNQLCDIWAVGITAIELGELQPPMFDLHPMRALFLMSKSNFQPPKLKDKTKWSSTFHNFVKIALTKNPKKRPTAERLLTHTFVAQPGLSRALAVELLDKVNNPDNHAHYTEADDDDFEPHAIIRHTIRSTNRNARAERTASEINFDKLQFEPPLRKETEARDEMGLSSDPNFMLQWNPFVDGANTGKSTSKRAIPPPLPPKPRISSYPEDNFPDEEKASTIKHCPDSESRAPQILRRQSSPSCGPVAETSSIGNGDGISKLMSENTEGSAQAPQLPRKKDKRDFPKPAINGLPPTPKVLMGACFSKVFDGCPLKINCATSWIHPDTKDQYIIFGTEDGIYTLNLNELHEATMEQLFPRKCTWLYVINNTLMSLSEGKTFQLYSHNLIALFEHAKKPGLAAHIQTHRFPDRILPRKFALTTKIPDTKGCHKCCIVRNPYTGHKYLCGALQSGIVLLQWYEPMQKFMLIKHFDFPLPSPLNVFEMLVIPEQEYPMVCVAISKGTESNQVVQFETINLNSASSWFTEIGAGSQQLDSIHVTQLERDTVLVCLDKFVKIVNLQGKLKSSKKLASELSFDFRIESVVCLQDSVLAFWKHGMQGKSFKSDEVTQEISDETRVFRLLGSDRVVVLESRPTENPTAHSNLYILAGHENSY
The target of series [35] is Protein-tyrosine kinase 6 (Homo sapiens) (UniProt Q13882). The series can be described thus: Inhibition of BRK (unknown origin) at 100 nM.
Chain of Protein-tyrosine kinase 6 (Homo sapiens) (Q13882 whole entry, looked up): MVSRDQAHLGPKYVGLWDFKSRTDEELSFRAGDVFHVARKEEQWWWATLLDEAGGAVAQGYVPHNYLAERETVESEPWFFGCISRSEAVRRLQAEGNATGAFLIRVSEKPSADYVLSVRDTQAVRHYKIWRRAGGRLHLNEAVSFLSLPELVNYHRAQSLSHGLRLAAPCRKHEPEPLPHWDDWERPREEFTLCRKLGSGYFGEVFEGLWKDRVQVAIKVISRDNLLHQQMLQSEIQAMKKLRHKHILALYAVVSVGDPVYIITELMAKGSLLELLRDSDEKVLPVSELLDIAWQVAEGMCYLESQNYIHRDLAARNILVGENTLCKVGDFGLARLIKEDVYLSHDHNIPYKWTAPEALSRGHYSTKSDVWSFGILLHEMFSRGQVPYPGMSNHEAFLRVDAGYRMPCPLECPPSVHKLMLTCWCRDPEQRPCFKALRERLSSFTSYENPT
Series [36] has as its target Platelet-derived growth factor receptor alpha (Homo sapiens) (UniProt P16234). The series can be described thus: Inhibition of PDGFRalpha (unknown origin) at 100 nM.
For series [37], the target named is Discoidin domain-containing receptor 2 (Homo sapiens) (UniProt Q16832). Description: Inhibition of DDR2 (unknown origin) at 100 nM.
For series [38], the target named is Dual specificity protein kinase CLK3 (Homo sapiens) (UniProt P49761). Description: Inhibition of CLK3 (unknown origin) at 100 nM.
The target of series [39] is Phosphorylase b kinase gamma catalytic chain, skeletal muscle/heart isoform (Homo sapiens) (UniProt Q16816). Description: Inhibition of PHKgamma1 (unknown origin) at 100 nM.
The target in series [40] is Serine/threonine-protein kinase Nek7 (Homo sapiens) (UniProt Q8TDX7). The series can be described thus: Inhibition of NEK7 (unknown origin) at 100 nM.
In series [41] the test system is Platelet-derived growth factor receptor alpha (Homo sapiens), P16234 [T674I]. Description: Inhibition of PDGFRalpha T674I mutant (unknown origin) at 100 nM.
Series [42] has as its target MAP kinase-activated protein kinase 3 (Homo sapiens) (UniProt Q16644). Description: Inhibition of MAPKAPK3 (unknown origin) at 100 nM.
Series [43] deals with Hepatocyte. The series can be described thus: Drug metabolism in human hepatocytes assessed as glucuronidation. It is filed as ADME, cell-based.

Chain of Mitogen-activated protein kinase kinase kinase 5 (Homo sapiens) (Q99683 whole entry, the tested form may be a part): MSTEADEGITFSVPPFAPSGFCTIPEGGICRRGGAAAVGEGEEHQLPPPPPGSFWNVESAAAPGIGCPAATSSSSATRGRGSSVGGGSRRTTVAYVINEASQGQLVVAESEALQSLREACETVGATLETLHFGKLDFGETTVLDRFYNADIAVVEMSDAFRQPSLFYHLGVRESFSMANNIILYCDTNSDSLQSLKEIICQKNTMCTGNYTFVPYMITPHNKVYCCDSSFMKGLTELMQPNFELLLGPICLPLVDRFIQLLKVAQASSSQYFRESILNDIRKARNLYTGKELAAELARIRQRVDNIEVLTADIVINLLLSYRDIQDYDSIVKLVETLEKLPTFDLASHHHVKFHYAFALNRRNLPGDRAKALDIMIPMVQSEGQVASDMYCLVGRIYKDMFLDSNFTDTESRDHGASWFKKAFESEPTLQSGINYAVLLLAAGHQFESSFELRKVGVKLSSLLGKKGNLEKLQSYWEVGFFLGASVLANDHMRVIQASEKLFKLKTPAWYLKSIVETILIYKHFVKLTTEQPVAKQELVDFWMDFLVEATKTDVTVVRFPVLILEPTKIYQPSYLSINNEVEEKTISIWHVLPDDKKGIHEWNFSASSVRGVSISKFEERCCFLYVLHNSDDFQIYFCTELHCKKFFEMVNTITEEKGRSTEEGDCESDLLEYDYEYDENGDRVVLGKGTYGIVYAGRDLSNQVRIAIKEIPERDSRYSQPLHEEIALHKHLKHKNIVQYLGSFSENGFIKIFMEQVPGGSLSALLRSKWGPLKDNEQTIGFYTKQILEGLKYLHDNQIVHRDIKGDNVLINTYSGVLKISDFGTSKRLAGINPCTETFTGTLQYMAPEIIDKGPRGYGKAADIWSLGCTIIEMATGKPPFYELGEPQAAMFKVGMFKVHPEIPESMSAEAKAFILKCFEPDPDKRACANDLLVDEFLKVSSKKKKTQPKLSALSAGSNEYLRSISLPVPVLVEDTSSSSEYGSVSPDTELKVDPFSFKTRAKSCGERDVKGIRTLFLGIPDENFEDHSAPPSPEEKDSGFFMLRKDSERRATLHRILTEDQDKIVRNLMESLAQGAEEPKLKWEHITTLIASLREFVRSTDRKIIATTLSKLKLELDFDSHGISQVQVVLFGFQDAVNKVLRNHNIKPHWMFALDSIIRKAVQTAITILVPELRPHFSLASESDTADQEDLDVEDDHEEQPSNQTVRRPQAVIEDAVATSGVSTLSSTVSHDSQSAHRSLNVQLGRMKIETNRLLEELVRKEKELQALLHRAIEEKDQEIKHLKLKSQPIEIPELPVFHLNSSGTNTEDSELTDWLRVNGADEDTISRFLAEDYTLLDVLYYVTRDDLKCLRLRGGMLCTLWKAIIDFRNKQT
Chain of Platelet-derived growth factor receptor alpha (Homo sapiens), P16234 [V561D] (P16234 whole entry V561D): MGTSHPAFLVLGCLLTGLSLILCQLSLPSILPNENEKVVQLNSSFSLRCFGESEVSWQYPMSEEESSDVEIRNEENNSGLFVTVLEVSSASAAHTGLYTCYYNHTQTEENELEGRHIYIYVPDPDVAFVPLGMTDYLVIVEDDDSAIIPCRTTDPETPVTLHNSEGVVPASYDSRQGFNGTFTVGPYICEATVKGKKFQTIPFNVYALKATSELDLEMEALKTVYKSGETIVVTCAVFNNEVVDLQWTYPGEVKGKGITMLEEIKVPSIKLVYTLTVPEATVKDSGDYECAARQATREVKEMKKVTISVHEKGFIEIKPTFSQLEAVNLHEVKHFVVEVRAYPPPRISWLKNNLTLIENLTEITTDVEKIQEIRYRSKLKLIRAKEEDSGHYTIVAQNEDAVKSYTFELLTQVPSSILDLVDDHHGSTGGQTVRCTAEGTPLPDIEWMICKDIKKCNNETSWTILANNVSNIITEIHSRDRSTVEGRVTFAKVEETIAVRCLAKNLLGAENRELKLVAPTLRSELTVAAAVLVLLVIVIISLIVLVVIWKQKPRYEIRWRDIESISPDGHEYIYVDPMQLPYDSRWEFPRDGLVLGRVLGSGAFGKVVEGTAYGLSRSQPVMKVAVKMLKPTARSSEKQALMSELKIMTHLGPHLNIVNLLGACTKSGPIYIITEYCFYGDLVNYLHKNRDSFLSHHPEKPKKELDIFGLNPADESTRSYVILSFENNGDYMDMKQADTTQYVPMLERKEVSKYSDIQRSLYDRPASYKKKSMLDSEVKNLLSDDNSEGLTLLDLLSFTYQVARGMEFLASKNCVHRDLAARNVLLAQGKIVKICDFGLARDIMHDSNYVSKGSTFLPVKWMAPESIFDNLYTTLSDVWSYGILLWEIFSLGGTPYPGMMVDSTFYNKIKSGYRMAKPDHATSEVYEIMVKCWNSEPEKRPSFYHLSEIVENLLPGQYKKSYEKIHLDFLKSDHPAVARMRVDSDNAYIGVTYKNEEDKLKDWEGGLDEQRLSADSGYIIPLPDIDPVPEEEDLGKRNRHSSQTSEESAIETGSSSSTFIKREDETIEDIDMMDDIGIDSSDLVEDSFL
Chain of Casein kinase I isoform gamma-3 (Homo sapiens) (Q9Y6M4 whole entry, looked up, canonical isoform): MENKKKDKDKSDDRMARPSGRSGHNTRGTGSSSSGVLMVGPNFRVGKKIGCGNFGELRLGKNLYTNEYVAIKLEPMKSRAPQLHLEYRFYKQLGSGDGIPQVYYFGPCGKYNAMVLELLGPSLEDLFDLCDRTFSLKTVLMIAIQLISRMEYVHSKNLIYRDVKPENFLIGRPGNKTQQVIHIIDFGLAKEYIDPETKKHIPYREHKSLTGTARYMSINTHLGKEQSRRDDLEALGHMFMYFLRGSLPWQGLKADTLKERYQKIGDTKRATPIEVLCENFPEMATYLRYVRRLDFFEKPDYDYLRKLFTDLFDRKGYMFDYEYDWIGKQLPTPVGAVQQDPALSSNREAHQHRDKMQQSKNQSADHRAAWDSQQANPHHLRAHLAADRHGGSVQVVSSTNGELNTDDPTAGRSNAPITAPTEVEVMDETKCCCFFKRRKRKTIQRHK

As for `CC1(C)OCc2c(Nc3n[nH]c4ccccc34)nc(-c3cn[nH]c3)nc21`, the inhibition in series [1] was 5.7%; in series [2], 89.2%; in series [3] it was 1.8%; in series [4] it was 8.6%; in series [5] it was 3.4%; in series [6], -3.2%. Further, the inhibition is 12% in series [7]; 7.2% in series [8]; 2.8% in series [9]; 18.4% in series [10]; 6.3% in series [11]; 95.8% in [12]. Further, the inhibition in series [13] is 30.3%; in [14], 3.4%; in [15], -3.1%; in [16], -0.1%; in series [17] it was 4.2%; in [18], 1.2%. Also, the inhibition in series [19] is 71.8%; in [20] it was 61.5%; in series [21], 4.9%; in [22] it was -0.1%; in series [23], -7.1%; in series [24], 1.3%. For the same compound, the inhibition was 35.9% in [25]; 3.7% in series [26]; 2.3% in series [27]; 1.8% in [28]; 11.6% in series [29]; 66% in [30]. The inhibition in series [31] was 8.9%; in series [32], -5.2%; in series [33] it was 5.1%; in [34], 12.7%; in series [35], 90.6%; in series [36], 57.1%. Also, the inhibition in [37] was determined as 23.4%; in series [38] it was 3.3%; in series [39] it was 8.5%; in series [40], 8.4%; in series [41], 9.5%; in series [42] it was 5.4%.

For `CC1(C)OCc2c(Nc3n[nH]c4c(Cl)cccc34)nc(-c3cn[nH]c3)nc21`, the Drug metabolism result in series [43] is given as “metabolite_detected”.

Values taken from ChEMBL document CHEMBL3758169, “4-Aminoindazolyl-dihydrofuro[3,4-d]pyrimidines as non-covalent inhibitors of mutant epidermal growth factor receptor tyrosine kinase” (Bioorg Med Chem Lett, 2016).
